Activity calls are given as the source filed them. The calls are words filed in the database; no cut-off is given here.

Series [1] concerns the target T1, Histone acetyltransferase p300 (Homo sapiens, UniProt Q09472). Kind of series: Inhibition of p300 (unknown origin) preincubated for 15 mins followed by addition of substrate [3H] Ac-CoA and measured after 60 mins by liquid scintillation counting assay.
Series [2] deals with CREB-binding protein (Homo sapiens, UniProt Q92793). Kind of series: Inhibition of CBP (unknown origin) preincubated for 15 mins followed by addition of substrate [3H] Ac-CoA and measured after 60 mins by liquid scintillation counting assay.
Chain of CREB-binding protein (Q92793 whole entry): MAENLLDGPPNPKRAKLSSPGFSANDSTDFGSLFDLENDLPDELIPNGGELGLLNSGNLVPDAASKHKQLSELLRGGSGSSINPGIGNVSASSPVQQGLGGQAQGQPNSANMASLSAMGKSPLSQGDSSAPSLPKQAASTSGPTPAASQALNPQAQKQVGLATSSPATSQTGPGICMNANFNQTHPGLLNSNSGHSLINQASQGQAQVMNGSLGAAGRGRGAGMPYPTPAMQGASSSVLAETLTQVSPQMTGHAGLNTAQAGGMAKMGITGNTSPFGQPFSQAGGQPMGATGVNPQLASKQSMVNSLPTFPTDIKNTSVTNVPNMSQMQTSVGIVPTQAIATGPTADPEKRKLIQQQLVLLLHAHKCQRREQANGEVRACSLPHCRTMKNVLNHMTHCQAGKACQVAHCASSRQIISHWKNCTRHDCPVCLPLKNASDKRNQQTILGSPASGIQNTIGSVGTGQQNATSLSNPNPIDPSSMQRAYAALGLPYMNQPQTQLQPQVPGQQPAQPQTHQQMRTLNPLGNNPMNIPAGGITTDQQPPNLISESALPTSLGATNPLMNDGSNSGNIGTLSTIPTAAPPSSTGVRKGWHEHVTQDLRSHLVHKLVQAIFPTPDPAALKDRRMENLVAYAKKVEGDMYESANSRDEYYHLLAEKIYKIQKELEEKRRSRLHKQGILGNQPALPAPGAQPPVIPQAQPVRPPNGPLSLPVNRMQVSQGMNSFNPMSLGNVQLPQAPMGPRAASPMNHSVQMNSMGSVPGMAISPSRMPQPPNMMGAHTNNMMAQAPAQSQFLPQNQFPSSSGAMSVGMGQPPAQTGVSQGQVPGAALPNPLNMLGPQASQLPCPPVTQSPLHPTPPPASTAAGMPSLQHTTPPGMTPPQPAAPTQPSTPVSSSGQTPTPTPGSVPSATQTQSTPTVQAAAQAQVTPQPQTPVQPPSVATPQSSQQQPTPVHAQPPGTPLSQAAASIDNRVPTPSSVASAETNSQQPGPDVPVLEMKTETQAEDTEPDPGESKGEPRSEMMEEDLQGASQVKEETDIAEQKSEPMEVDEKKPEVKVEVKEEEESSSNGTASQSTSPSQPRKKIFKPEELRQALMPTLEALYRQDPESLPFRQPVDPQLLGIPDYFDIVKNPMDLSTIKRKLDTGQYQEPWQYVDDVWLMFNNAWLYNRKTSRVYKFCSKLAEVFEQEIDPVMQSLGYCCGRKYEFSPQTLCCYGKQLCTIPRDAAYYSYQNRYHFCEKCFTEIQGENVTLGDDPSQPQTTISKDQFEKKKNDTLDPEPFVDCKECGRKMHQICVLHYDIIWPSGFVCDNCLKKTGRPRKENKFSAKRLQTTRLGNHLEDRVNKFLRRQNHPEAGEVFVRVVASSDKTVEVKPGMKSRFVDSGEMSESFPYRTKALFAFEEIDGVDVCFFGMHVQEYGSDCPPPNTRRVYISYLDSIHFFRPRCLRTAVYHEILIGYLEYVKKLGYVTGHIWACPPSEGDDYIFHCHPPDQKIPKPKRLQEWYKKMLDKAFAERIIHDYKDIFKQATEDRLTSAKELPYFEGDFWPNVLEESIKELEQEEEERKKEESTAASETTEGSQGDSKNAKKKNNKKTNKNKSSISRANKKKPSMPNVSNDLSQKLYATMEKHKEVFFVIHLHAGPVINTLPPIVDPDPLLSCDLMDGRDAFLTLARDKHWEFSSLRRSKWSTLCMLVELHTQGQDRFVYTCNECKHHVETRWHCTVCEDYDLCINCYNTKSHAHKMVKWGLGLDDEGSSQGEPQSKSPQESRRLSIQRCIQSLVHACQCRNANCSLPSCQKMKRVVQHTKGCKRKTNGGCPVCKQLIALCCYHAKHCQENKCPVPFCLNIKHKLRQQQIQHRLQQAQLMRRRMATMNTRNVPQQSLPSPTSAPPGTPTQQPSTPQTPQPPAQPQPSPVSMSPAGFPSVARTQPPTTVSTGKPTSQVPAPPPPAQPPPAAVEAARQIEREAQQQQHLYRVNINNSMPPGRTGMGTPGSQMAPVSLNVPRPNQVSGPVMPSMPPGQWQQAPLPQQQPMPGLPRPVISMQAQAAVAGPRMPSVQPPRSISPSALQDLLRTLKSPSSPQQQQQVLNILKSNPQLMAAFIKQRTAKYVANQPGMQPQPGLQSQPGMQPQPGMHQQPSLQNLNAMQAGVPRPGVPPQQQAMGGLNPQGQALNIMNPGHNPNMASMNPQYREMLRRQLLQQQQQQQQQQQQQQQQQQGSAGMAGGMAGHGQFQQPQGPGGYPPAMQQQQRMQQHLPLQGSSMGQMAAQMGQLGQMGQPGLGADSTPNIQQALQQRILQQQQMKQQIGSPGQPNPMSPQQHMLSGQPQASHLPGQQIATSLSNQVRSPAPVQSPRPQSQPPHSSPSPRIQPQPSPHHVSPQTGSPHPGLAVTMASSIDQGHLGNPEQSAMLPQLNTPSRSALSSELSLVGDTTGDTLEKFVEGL
Series [3] relates to OVCAR-3. Kind of series: Antiproliferative activity against human OVCAR-3 cells assessed as inhibition of cell proliferation measured after 120 hrs by Cell-titre glo assay. The conditions noted are these: OVCAR-3, 120 h. The series is classed as functional, cell-based.
In series [4] the test system is A2780. Kind of series: Antiproliferative activity against human A2780 cells assessed as inhibition of cell proliferation measured after 120 hrs by Cell-titre glo assay. Format: functional, cell-based. The conditions noted are these: A2780, 120 h.
The nature of series [5]: Toxicity in Balb/c nude mouse xenografted with human OVCAR-3 cells assessed as body weight loss at 30 mg/kg, ip measured after 24 days. The series is classed as organism-based. The settings on record: in vivo, 576 h, time 24 day.
The nature of series [6]: Stability in mouse liver microsomes assessed as intrinsic clearance. The series is classed as ADME, Microsome.
Series [7] in a line: Tmax in Sprague-Dawley rat at 3 mg/kg, po. The series is classed as ADME, organism-based. The settings on record: in vivo.
Series [8] relates to SK-OV-3. Kind of series: Antiproliferative activity against human SK-OV-3 cells assessed as inhibition of cell proliferation measured after 120 hrs by Cell-titre glo assay. Format: functional, cell-based.
The nature of series [9]: Stability in human liver microsomes assessed as intrinsic clearance. The series is classed as ADME, Microsome. A general note: Liver microsomes are vesicles of endoplasmic reticulum, rich in cytochrome P450 enzymes.
For series [10], the system named is OVCAR-3. Kind of series: Antitumour activity against human OVCAR-3 cells xenografted in Balb/c mouse assessed as reduction of tumor volume at 30 mg/kg, ip qd measured every 3 to 4 days for 2 weeks (reference value: 2838.39 +/- 1392.47 mm3). The series is classed as functional.
Series [11] in a line: Stability in rat liver microsomes assessed as intrinsic clearance. The series is classed as ADME, Microsome.
Series [12] concerns the target Histone acetyltransferase KAT2A (Homo sapiens) (UniProt Q92830). Kind of series: Inhibition of GCN5 in human OVCAR-3 cells assessed as reduction of H3K9ac levels at 0.25 to 4 uM after 24 hrs by Western blot assay. The series is classed as cell-based. The settings on record: dose 0.25-4 µM. Background: Immunoblotting shows a protein as a band on a membrane.
Series [13] deals with TOV21G. Kind of series: Antiproliferative activity against human TOV-21G cells assessed as inhibition of cell proliferation measured after 120 hrs by Cell-titre glo assay. Format: functional, cell-based.
The nature of series [14]: Cmax in Sprague-Dawley rat at 3 mg/kg, po. The series is classed as ADME, organism-based. Further details: route oral, dose 3 mg/kg. The settings on record: in vivo.
Series [15] in a line: Toxicity in Balb/c nude mouse xenografted with human OVCAR-3 cells assessed as body weight loss at 20 to 30 mg/kg, ip qd measured every 3 to 4 days for 2 weeks. The series is classed as organism-based. The settings on record: in vivo, 336 h, dose 20-30 mg/kg. In general terms: Xenograft models place foreign cells or tissue in a host animal.
The test system of series [16] is HEK293. Kind of series: Antiproliferative activity against human 293 cells assessed as inhibition of cell proliferation measured after 120 hrs by Cell-titre glo assay. The series is classed as cell-based. The settings on record: hek293, 120 h.
The nature of series [17]: AUC(last) in Sprague-Dawley rat at 3 mg/kg, po. The series is classed as ADME, organism-based. The arrangement: time 0 - last, route oral, dose 3 mg/kg. The conditions noted are these: in vivo.
Series [18] relates to OVCAR-3. Kind of series: Antitumour activity against human OVCAR-3 cells xenografted in Balb/c mouse assessed as reduction of tumor volume at 20 mg/kg, ip qd measured every 3 to 4 days for 2 weeks. The series is classed as functional, organism-based.
Series [19] concerns the target T1, Histone acetyltransferase p300. Kind of series: Inhibition of p300 (unknown origin).
Series [20] shares this target. Kind of series: Inhibition of p300 in human OVCAR-3 cells assessed as reduction of H3K27ac levels measured after 24 hrs by Western blot assay. The series is classed as cell-based. The settings on record: dose 0.25-4 µM.
The nature of series [21]: Half life in Sprague-Dawley rat at 3 mg/kg, po. The series is classed as ADME, organism-based. The conditions noted are these: in vivo.
The target in series [22] is CREB-binding protein/Histone acetyltransferase p300 (Homo sapiens) (UniProt Q09472+Q92793). Kind of series: Inhibition of p300/CBP in human OVCAR-3 cells assessed as reduction of C-myc levels at 0.25 uM measured after 2 days by Western blot assay relative to control. Format: cell-based. The conditions noted are these: time 2.0 day.
Chain of CREB-binding protein/Histone acetyltransferase p300 (Homo sapiens) (Q09472 whole entry, looked up): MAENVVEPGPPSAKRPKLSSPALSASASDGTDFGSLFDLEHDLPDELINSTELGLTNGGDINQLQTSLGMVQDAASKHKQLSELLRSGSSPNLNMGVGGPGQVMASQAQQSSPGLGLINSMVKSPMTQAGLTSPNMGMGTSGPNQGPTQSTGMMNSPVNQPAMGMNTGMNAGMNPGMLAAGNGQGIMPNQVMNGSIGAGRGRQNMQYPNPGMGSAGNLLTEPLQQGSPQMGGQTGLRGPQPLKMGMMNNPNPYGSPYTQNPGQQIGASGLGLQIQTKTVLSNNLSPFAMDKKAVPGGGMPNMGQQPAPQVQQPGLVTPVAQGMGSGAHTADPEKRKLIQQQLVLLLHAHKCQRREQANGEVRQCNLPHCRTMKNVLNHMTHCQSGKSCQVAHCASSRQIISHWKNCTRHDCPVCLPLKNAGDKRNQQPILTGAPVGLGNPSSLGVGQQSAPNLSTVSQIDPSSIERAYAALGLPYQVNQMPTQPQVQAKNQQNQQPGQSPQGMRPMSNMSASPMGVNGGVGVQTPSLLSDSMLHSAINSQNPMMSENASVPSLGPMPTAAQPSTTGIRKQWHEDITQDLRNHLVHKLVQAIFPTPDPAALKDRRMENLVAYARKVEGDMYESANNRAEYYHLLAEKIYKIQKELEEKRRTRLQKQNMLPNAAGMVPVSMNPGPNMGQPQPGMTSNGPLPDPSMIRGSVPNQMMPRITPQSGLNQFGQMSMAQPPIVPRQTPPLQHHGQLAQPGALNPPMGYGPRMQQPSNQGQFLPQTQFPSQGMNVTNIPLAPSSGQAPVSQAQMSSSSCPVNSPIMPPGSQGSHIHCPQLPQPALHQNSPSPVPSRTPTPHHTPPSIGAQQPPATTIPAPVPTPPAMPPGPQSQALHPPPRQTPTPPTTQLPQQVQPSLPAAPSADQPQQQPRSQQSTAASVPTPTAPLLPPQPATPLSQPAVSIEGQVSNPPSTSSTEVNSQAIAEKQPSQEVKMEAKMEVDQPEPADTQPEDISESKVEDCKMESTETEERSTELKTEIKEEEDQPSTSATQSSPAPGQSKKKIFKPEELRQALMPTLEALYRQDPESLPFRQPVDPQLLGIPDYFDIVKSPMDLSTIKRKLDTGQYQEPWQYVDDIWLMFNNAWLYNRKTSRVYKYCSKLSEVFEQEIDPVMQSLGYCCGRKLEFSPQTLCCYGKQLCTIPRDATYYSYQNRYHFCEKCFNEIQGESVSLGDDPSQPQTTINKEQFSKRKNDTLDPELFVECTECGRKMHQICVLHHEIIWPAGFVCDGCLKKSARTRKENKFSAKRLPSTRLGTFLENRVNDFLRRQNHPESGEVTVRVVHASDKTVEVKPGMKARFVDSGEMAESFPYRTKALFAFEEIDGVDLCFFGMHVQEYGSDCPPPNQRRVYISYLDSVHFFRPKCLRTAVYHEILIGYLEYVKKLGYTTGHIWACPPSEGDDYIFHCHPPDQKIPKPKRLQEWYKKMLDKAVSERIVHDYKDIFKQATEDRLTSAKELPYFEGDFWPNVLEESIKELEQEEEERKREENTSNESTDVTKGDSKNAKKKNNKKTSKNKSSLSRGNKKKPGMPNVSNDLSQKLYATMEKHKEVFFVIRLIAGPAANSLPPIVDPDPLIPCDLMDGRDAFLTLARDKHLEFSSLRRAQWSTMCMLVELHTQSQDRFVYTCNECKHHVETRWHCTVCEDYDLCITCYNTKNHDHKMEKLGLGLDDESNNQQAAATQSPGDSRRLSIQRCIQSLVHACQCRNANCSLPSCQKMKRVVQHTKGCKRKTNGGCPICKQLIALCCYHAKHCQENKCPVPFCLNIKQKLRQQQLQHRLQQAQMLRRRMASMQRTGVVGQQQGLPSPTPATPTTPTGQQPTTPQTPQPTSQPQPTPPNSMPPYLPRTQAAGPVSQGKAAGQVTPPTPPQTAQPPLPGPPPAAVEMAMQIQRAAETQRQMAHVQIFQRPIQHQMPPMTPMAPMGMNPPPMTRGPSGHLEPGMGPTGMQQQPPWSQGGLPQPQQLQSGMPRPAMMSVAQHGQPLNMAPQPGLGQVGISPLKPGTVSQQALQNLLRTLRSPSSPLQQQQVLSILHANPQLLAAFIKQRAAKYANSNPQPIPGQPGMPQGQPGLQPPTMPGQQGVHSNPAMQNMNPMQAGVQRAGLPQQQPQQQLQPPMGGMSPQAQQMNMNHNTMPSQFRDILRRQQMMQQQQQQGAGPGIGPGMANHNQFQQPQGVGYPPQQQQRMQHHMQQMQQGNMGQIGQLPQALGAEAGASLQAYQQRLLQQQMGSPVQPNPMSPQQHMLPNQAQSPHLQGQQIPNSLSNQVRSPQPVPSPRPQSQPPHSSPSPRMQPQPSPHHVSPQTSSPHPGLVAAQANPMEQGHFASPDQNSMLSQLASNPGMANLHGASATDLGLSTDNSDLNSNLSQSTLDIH
Chain of CREB-binding protein/Histone acetyltransferase p300 (Homo sapiens) (Q92793 whole entry, looked up): as the sequence (Q92793 whole entry) above
Series [23] relates to OVCAR-3. Kind of series: Antitumour activity against human OVCAR-3 cells xenografted in Balb/c mouse assessed as reduction of tumor volume at 100 mg/kg, ip qd measured every 3 to 4 days for 2 weeks. Format: functional, organism-based.
Series [24] concerns the target T1, Histone acetyltransferase p300. Kind of series: Inhibition of p300 in human OVCAR-3 cells assessed as reduction of H3K18ac levels measured after 24 hrs by Western blot assay. The series is classed as cell-based. The conditions noted are these: dose 0.25-4 µM.

T1 sequence (Q09472 whole entry): as the sequence (Q09472 whole entry, looked up) above

By IC50 is commonly meant the concentration that gives 50% inhibition. Take `CNC(=O)Nc1ccc2c(c1)CCC[C@@]21OC(=O)N(CC(=O)N2Cc3cc(F)ccc3OC[C@H]2C2CC2)C1=O`: the IC50 in series [1] came out at 11 nM; in series [2] it was 69 nM.

For orientation: EC50 means the midpoint of the concentration-response curve. With `CNC(=O)Nc1ccc2c(c1)CC[C@@]21OC(=O)N(CC(=O)N(Cc2ccc(F)cc2)[C@@H](C)C(F)(F)F)C1=O` [A-485], the EC50 in series [3] is 5440 nM.

Turning to `CNC(=O)Nc1ccc2c(c1)CC[C@@]21OC(=O)N(CC(=O)N2Cc3sc(C)c(C)c3OC[C@H]2C(F)(F)F)C1=O`, the IC50 in series [1] was determined as 430 nM; in [2], 680 nM.

For `CNC(=O)Nc1ccc2c(c1)CC[C@@]21OC(=O)N(CC(=O)N2Cc3ccccc3CC[C@H]2C)C1=O`, the results for the IC50 in series [1] and in series [2] were 2.5 nM and 28 nM, respectively. Also, the values for the EC50 in series [4] and in series [3] were 2710 nM and 865 nM, respectively.

Consider `CNC(=O)Nc1ccc2c(c1)CC[C@@]21OC(=O)N(CC(=O)N2Cc3ncccc3CC[C@H]2C2CC2)C1=O`, for which the IC50 in [1] came out at 8.6 nM; in series [2], 30 nM.

As to `CNC(=O)Nc1ccc2c(c1)CC[C@@]21OC(=O)N(CC(=O)N2Cc3ccncc3CC[C@H]2C2CC2)C1=O`, the IC50 in [1] worked out at 9.8 nM; in series [2], 28 nM.

As to `CNC(=O)Nc1ccc2c(c1)CC[C@@]21OC(=O)N(CC(=O)N2Cc3cc(F)c(F)cc3CC[C@H]2C2CC2)C1=O`, the IC50 was 0.56 nM in series [1] and 7 nM in series [2]. Moreover, the EC50 is 974 nM in series [4] and 164 nM in series [3].

Broadly, the Tmax is the time from dosing to the highest level. For orientation: inhibition means the change of the read-out against control, counted positive when it falls. For orientation: Cmax means the maximum level reached in the sampled fluid or tissue. With `CNC(=O)Nc1ccc2c(c1)CC[C@@]21OC(=O)N(CC(=O)N2Cc3cc(F)ccc3OC[C@H]2C2CC2)C1=O`, the Activity entry in series [5] was “Toxic”; in [10], 1703.74 mm3; in [15] it was “Toxic”; in series [16], “Non-Toxic”. Besides, the CLH in series [6] is 48 mL/min/g; in series [9], 34.8 mL/min/g; in series [11] it was 66.5 mL/min/g. In series [7], the Tmax was found to be 1 h. The outcome in series [8], in [13], in [18] and in series [23] was Active. Further, the IC50 in series [1] came to 0.49 nM; in [2], 7.1 nM; in [19], 0.51 nM. Moreover, in [12], the inhibition result was “inactive”. The same molecule came in with a Cmax in series [14] of 20.3 ng/mL. In series [17], this molecule gave an AUClast of 480 ng·h/mL. Moreover, the figures for the EC50 in [4] and in series [3] were 678 nM and 153 nM, respectively. Also, the values for the inhibition entry in [20], in series [22] and in series [24] were “Dose-Dependent Effect”, 50% and “Dose-Dependent Effect”, respectively. The molecule further yielded a t1/2 in series [21] of 1.4 h.

Consider `CNC(=O)Nc1ccc2c(c1)OCC[C@@]21OC(=O)N(CC(=O)N2Cc3ccc(F)cc3CC[C@H]2C2CC2)C1=O`, for which the results for the IC50 in series [1] and in [2] were 8.6 nM and 22 nM, respectively.

`CNC(=O)Nc1ccc2c(c1)CC[C@@]21OC(=O)N(CC(=O)N2Cc3sccc3OC[C@H]2C2CC2)C1=O`: the IC50 in series [1] is 4 nM; in series [2], 12 nM.

For `CNC(=O)Nc1ccc2c(c1)CC[C@@]21OC(=O)N(CC(=O)N2Cc3cccnc3CC[C@H]2C2CC2)C1=O`, the values for the IC50 in series [1] and in series [2] were 10 nM and 44 nM, respectively.

In the case of `CNC(=O)Nc1ccc2c(c1)CC[C@@]21OC(=O)N(CC(=O)N2Cc3cnccc3CC[C@H]2C2CC2)C1=O`, the IC50 turned out to be 13 nM in series [1] and 41 nM in series [2].

As for `CNC(=O)Nc1ccc2c(c1)CC[C@@]21OC(=O)N(CC(=O)N2Cc3ccc(F)cc3CC[C@H]2C2CC2)C1=O`, the CLH in series [6] is 150 mL/min/g; in series [9], 112 mL/min/g; in [11], 258 mL/min/g. In addition, the IC50 in series [1] turned out to be 0.95 nM; in series [2] it was 8.1 nM. The EC50 was found to be 471 nM in series [4] and 90.4 nM in series [3].

Regarding `CNC(=O)Nc1cc2c(cc1F)[C@@]1(CC2)OC(=O)N(CC(=O)N2Cc3ccc(F)cc3CC[C@H]2C2CC2)C1=O`, the CLH in [6] was determined as 106 mL/min/g; in series [9], 161 mL/min/g; in [11], 94.4 mL/min/g. The IC50 in series [1] turned out to be 1.7 nM; in series [2], 8.2 nM. Further, the EC50 in series [4] was 4470 nM; in series [3] it was 4300 nM.

Take `CNC(=O)Nc1ccc2c(c1)COC[C@@]21OC(=O)N(CC(=O)N2Cc3cc(F)ccc3OC[C@H]2C2CC2)C1=O`: the IC50 in [1] amounted to 12 nM; in series [2] it was 51 nM.

In the case of `CNC(=O)Nc1ccc2c(c1)CCC[C@@]21OC(=O)N(CC(=O)N2Cc3ccc(F)cc3CC[C@H]2C2CC2)C1=O`, the IC50 in series [1] worked out at 2.2 nM; in series [2] it was 14 nM.

Source of the values: ChEMBL document CHEMBL5032535, “Design, synthesis and biological evaluation of a novel spiro oxazolidinedione as potent p300/CBP HAT inhibitor for the treatment of ovarian cancer” (Bioorg Med Chem, 2021).
